Assay results published in patent US4482486A, “Analogs of vasopressin” (Ceskoslovenska akademie ved, priority 1982, dated 1984).

Assays:
Assay type in all cases: in vivo
rats [1] = assay: Uterotonic endocrine activity in rats; details: rat
Method: (§1) The endocrine biological activities (in I.U./mg--International Unit--see "Handbook of Experimental Pharmacology", Vol. XXIII: Neurohypophysical hormones and similar polypeptides (B. Berde, Ed), p. 131, Springer-Verlag,Berlin 1968) of the described compounds were determined in rats.

anaesthesized rat = assay: Antidiuretic activity, anaesthesized rat
Method: as §1

rats [2] = assay: Pressor endocrine activity in rats; details: rat
Method: as §1

rats [3] = assay: Galactogogic endocrine activity in rats; details: rat
Method: as §1

nonanaesthesized rat = assay: Antidiuretic activity, nonanaesthesized rat; details: percent of the effect of [8D-argine] deaminovasopressin at the level of threshold efficiency
Method: as §1
b = nonanaesthesized rat Activity is expressed in percent of the effect o
[8D-argine] deaminovasopressin at the level of threshold efficiency

NC(=O)CC[C@@H]1NC(=O)[C@H](Cc2ccccc2)NC(=O)[C@H](Cc2ccc(O)cc2)NC(=O)[C@@H](N)CSSC[C@@H](C(=O)N2CCC[C@H]2C(=O)N[C@@H](CCCN=C(N)N)C(=O)NCC(N)=O)NC(=O)[C@H](CC(N)=O)NC1=O [AVP, [8arginine] vasopressin, reference compound]
Uterotonic activity (rats [1]): 17 I.U./mg | Antidiuretic activity a (anaesthesized rat): 465 I.U./mg | Pressor activity (rats [2]): 465 I.U./mg | Galactogogic activity (rats [3]): 69 I.U./mg | Antidiuretic activity b (nonanaesthesized rat): 20%

[8-Ornithine, 9-desglycinamide]vasopressin [Ic]
Uterotonic activity (rats [1]): 0.09 I.U./mg | Antidiuretic activity a (anaesthesized rat): 0.3 I.U./mg | Pressor activity (rats [2]): 0.2 I.U./mg | Galactogogic activity (rats [3]): 0.02 I.U./mg | Antidiuretic activity b (nonanaesthesized rat): 0.1%

[8-D-Arginine, 9-desglycinamide] vasopressin [Ib]
Uterotonic activity (rats [1]): 0.07 I.U./mg | Antidiuretic activity a (anaesthesized rat): 4.5 I.U./mg | Pressor activity (rats [2]): 0.2 I.U./mg | Galactogogic activity (rats [3]): 0.12 I.U./mg | Antidiuretic activity b (nonanaesthesized rat): 0.4%

Lactam of tyrosyl-phenylalanyl-glutaminyl-asparaginyl-S-(γ-carboxypropyl)cysteinyl-prolyl-D-arginine [Ia]
Uterotonic activity (rats [1]): 0.09 I.U./mg | Antidiuretic activity a (anaesthesized rat): 0.8 I.U./mg | Pressor activity (rats [2]): inhibition | Antidiuretic activity b (nonanaesthesized rat): 0.2%
